# Experimental data published in PubChem BioAssay AID1259411 (Chemical Carcinogenesis Research Information System (CCRIS), 2018).
# Active and inactive are the calls of the source. How the calls were made is not given here.
# System: rodent carcinogenicity bioassays, tumor incidence
# Assay: CCRIS carcinogenicity studies
# In short: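 Archive of carcinogenicity, mutagenicity, tumor promotion and tumor inhibition results drawn from journals, NCI reports and other sources, expert-reviewed; covers 1985-2011 and is no longer updated.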
smiles,measurement,setting,value
CC1(c2ccc(Oc3ccccc3)cc2)OC(=O)N(Nc2ccccc2)C1=O (stereo unspecified),carcinogen call,"Species: Mouse, Strain/Sex: CRL: CD1 (ICR)BR/Female (60/Group), Route: Oral, Dose: 0, 1.0, 9.8, 130, 392 mg/kg/day of 97.4% famoxadone in diet for 18 mo, study duration 18 mo, Dose: 0, 1.0, 9.8, 130, 392 mg/kg/day of 97.4% famoxadone in diet for 18 mo, study duration 18 mo",inactive; negative
same,carcinogen call,"Species: Mouse, Strain/Sex: CRL: CD1 (ICR)BR/Male (60/Group), Route: Oral, Dose: 0, 0.7, 6.8, 96, 274 mg/kg/day of 97.4% famoxadone in diet for 18 mo, study duration 18 mo, Dose: 0, 0.7, 6.8, 96, 274 mg/kg/day of 97.4% famoxadone in diet for 18 mo, study duration 18 mo",inactive; negative
same,carcinogen call,"Species: Rat, Strain/Sex: CRL: CD BR/Female (62/Group), Route: Oral, Dose: 0, 0.53, 2.15, 10.7, 23.0 mg/kg/day of 97.4% famoxadone in diet for 24 mo, study duration 24 mo, Dose: 0, 0.53, 2.15, 10.7, 23.0 mg/kg/day of 97.4% famoxadone in diet for 24 mo, study duration 24 mo",inactive; negative
same,carcinogen call,"Species: Rat, Strain/Sex: CRL: CD BR/Male (62/Group), Route: Oral, Dose: 0, 0.42, 1.62, 8.4, 16.8 mg/kg/day of 97.4% famoxadone in diet for 23 mo, study duration 23 mo, Dose: 0, 0.42, 1.62, 8.4, 16.8 mg/kg/day of 97.4% famoxadone in diet for 23 mo, study duration 23 mo",inactive; negative
CN(C)CCN(Cc1cccs1)c1ccccn1,carcinogen call,"Species: RAT, Strain/Sex: F344/FEMALE, Route: ORAL, Dose: 0, 1 G/L IN DEIONIZED DRINKING WATER FOR 12 WK WITH NO TREATMENT DURING WK 5 AND 9 (STUDY DURATION: 121 WK)",inactive; negative
same,carcinogen call,"Species: RAT, Strain/Sex: F344/FEMALE, Route: ORAL, Dose: 0, 125, 250 MG/KG IN DIET (TOTAL DOSE: 0; 7; 15 MG/KG) FOR 110 WK (STUDY DURATION: 133 WK), Dose: 0, 125, 250 MG/KG IN DIET (TOTAL DOSE: 0; 7; 15 MG/KG) FOR 110 WK (STUDY DURATION: 133 WK), Tumor Site: Type of Lesion: LIVER: CARCINOMA",active; positive
same,carcinogen call,"Species: RAT, Strain/Sex: F344/MALE,FEMALE, Route: ORAL, Dose: 1000 PPM IN DIET FOR 64 WK (INITIAL DOSES AT 2000 PPM), Tumor Site: Type of Lesion: LIVER: HEPATOCELLULAR CARCINOMA, CHOLANGIOCARCINOMA",active; positive
same,carcinogen call,"Species: RAT, Strain/Sex: F344/MALE, Route: ORAL, Dose: 0, 125, 250 MG/KG IN DIET (TOTAL DOSE: 0; 7; 14 G/KG) FOR 110 WK (STUDY DURATION: 133 WK), Dose: 0, 125, 250 MG/KG IN DIET (TOTAL DOSE: 0; 7; 14 G/KG) FOR 110 WK (STUDY DURATION: 133 WK), Tumor Site: Type of Lesion: LIVER: CARCINOMA",active; positive
same,carcinogen call,"Species: RAT, Strain/Sex: SPRAGUE-DAWLEY/FEMALE, Route: ORAL, Dose: 0, 500, 1000 PPM IN DRINKING WATER 5D/WK FOR LIFE (STUDY DURATION: 576-709 D), Dose: 0, 500, 1000 PPM IN DRINKING WATER 5D/WK FOR LIFE (STUDY DURATION: 576-709 D), Tumor Site: Type of Lesion: LIVER: HEPATOCELLULAR CARCINOMA OR SARCOMA",active; positive
same,carcinogen call,"Species: RAT, Strain/Sex: SPRAGUE-DAWLEY/MALE, Route: ORAL, Dose: 0, 500, 1000 PPM IN DRINKING WATER 5D/WK FOR LIFE (STUDY DURATION: 585-760 D), Dose: 0, 500, 1000 PPM IN DRINKING WATER 5D/WK FOR LIFE (STUDY DURATION: 585-760 D), Tumor Site: Type of Lesion: LIVER: HEPATOCELLULAR CARCINOMA",active; positive
Nc1ccc(N(CCO)CCO)cc1,carcinogen call,"Species: RAT, Strain/Sex: F344/FEMALE, Route: ORAL, Dose: 0, 300, 1000, 3000 PPM IN DIET FOR 104 WK (STUDY DURATION: 104 WK), Dose: 0, 300, 1000, 3000 PPM IN DIET FOR 104 WK (STUDY DURATION: 104 WK)",inactive; negative
same,carcinogen call,"Species: RAT, Strain/Sex: F344/MALE, Route: ORAL, Dose: 0, 300, 1000, 3000 PPM IN DIET FOR 104 WK (STUDY DURATION: 104 WK), Dose: 0, 300, 1000, 3000 PPM IN DIET FOR 104 WK (STUDY DURATION: 104 WK)",inactive; negative
CC[C@H](C)[C@H]1O[C@]2(C=C[C@@H]1C)C[C@@H]1C[C@@H](C/C=C(\C)[C@@H](O[C@H]3C[C@H](OC)[C@@H](O[C@H]4C[C@H](OC)[C@@H](NC)[C@H](C)O4)[C@H](C)O3)[C@@H](C)/C=C/C=C3\CO[C@@H]4[C@H](O)C(C)=C[C@@H](C(=O)O1)[C@]34O)O2,carcinogen call,"Species: Mouse, Strain/Sex: Strain not specified/Female (50/Group), Route: Oral, Dose: 0, 0.5, 2.5, 12.5 (lowered to 7.5 at wk 48) mg/kg/day in the diet for 79 wk, study duration 79 wk, Dose: 0, 0.5, 2.5, 12.5 (lowered to 7.5 at wk 48) mg/kg/day in the diet for 79 wk, study duration 79 wk",inactive; negative
same,carcinogen call,"Species: Mouse, Strain/Sex: Strain not specified/Male (50/Group), Route: Oral, Dose: 0, 0.5, 2.5, 12.5 (lowered to 7.5 at wk 9 and to 5 at wk 31) mg/kg/day in the diet for 79 wk, study duration 79 wk, Dose: 0, 0.5, 2.5, 12.5 (lowered to 7.5 at wk 9 and to 5 at wk 31) mg/kg/day in the diet for 79 wk, study duration 79 wk",inactive; negative
same,carcinogen call,"Species: Rat, Strain/Sex: Strain not specified/Female (65/Group), Route: Oral, Dose: 0, 0.25, 1, 5 (lowered to 2.5 at wk 10) mg/kg/day in the diet for 105 wk, study duration 105 wk, Dose: 0, 0.25, 1, 5 (lowered to 2.5 at wk 10) mg/kg/day in the diet for 105 wk, study duration 105 wk",inactive; negative
same,carcinogen call,"Species: Rat, Strain/Sex: Strain not specified/Male (65/Group), Route: Oral, Dose: 0, 0.25, 1, 5 (lowered to 2.5 at wk 6) mg/kg/day in the diet for 105 wk, study duration 105 wk, Dose: 0, 0.25, 1, 5 (lowered to 2.5 at wk 6) mg/kg/day in the diet for 105 wk, study duration 105 wk",inactive; negative
CNNC,carcinogen call,"Species: HAMSTER, Route: INTRAMUSCULAR, Tumor Site: Type of Lesion: STOMACH, LIVER, INTESTINES, Tumor Site: Type of Lesion: STOMACH, LIVER, INTESTINES",active; positive
same,carcinogen call,"Species: HAMSTER, Route: ORAL, Tumor Site: Type of Lesion: BLOOD VESSELS, INTESTINES, LIVER, Tumor Site: Type of Lesion: BLOOD VESSELS, INTESTINES, LIVER",active; positive
same,carcinogen call,"Species: MONKEY, Strain/Sex: CEBUS APELLA/MALE, Route: SUBCUTANEOUS, Dose: 0, 25 MG/KG BW 1/WK FOR 16 WK (STUDY DURATION: 20 MO)",inactive; negative
same,carcinogen call,"Species: MOUSE, Route: ORAL, Tumor Site: Type of Lesion: LUNG, BLOOD VESSELS",active; positive
same,carcinogen call,"Species: MOUSE, Route: SUBCUTANEOUS, Tumor Site: Type of Lesion: COLON, INTESTINES",active; positive
same,carcinogen call,"Species: RAT, Route: ORAL, Tumor Site: Type of Lesion: INTESTINES, LIVER",active; positive
same,carcinogen call,"Species: RAT, Route: SUBCUTANEOUS, Tumor Site: Type of Lesion: COLON, INTESTINES, LIVER, Tumor Site: Type of Lesion: COLON, INTESTINES, LIVER",active; positive
same,carcinogen call,"Species: RAT, Strain/Sex: WISTAR/FEMALE, Route: SUBCUTANEOUS, Dose: 0, 200 MG/KG BW ONCE (STUDY DURATION: 1 YR), Tumor Site: Type of Lesion: KIDNEY: TUMOR",active; positive
same,carcinogen call,"Species: RAT, Strain/Sex: WISTAR/MALE, Route: SUBCUTANEOUS, Dose: 30 MG/KG IN NACL-EDTA 1/WK FOR 10 OR 15 WK, Tumor Site: Type of Lesion: INTESTINES: CARCINOMA (INVASIVE, INCLUDING MUCIN AND NONMUCIN PRODUCING), CARCINOMA (NONINVASIVE)",active; positive
Clc1ccc(C(c2ccccc2Cl)C(Cl)(Cl)Cl)cc1 (stereo unspecified) (tested in a mixture with another compound),carcinogen call,"Species: MOUSE, Strain/Sex: BALB/MALE,FEMALE, Route: DIET, Dose: 0, 2, 20, 250 PPM, Dose: 0, 2, 20, 250 PPM, Tumor Site: Type of Lesion: LIVER: HEPATOCELLULAR TUMOR",active; positive
same,carcinogen call,"Species: MOUSE, Strain/Sex: CF-1/MALE,FEMALE, Route: DIET, Dose: 0, 250 PPM FOR 30 WK, Tumor Site: Type of Lesion: LIVER: HEPATOMA",active; positive
same,carcinogen call,"Species: MOUSE, Strain/Sex: CF-1, Route: DIET, Dose: 0, 2, 10, 50, 250 PPM, Dose: 0, 2, 10, 50, 250 PPM, Tumor Site: Type of Lesion: LIVER: HEPATOCELLULAR TUMOR",active; positive
CC1CS(=O)(=O)CCN1/N=C/c1ccc([N+](=O)[O-])o1 (stereo unspecified),carcinogen call,"Species: MOUSE, Strain/Sex: SWISS/FEMALE, Route: INTRAPERITONEAL, Dose: 0, 8 UG/G BW 1/D FOR 30 DAYS (STUDY DURATION: LIFETIME), Tumor Site: Type of Lesion: LYMPHATIC SYSTEM: LYMPHOMA",active; positive
same,carcinogen call,"Species: MOUSE, Strain/Sex: SWISS/FEMALE, Route: INTRAPERITONEAL, Dose: 0, 8 UG/G BW 1/D FOR 60 DAYS (STUDY DURATION: LIFETIME), Tumor Site: Type of Lesion: LYMPHATIC SYSTEM: LYMPHOMA",active; positive
CNNC (tested in a mixture with another compound),carcinogen call,"Species: RAT, Strain/Sex: CD-1/MALE, Route: INTRAPERITONEAL, Dose: 0, 10 MG/KG/WK FOR 4 WK (STUDY DURATION: 1 YEAR), Tumor Site: Type of Lesion: PANCREAS: ADENOCARCINOMA, COLON: ADENOCARCINOMA",active; positive
